Drawing on patent publication US20260042764A1, “COMPOSITIONS AND METHODS FOR INHIBITION OF KRAS” (TheRas, Inc., priority 2022, published 2026), this text covers IC50 for 22 compounds.

The target of experiment [1] is T1, Avi-KRAS G12D (1-169) GppNHp/RAF1 RBD-3xFLAG (52-151) (Homo sapiens, UniProt P01116, G12D).
T1 construct: Avi-KRAS G12D (1-169)
Description: Raf1-KRAS G12D-GppNHP disruption HTRF assay (Biological Example 1). In kind it is binding. Conditions: KRAS G12D, GppNHp-loaded; Table 11. The procedure, abridged:
(§1)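 Protein mix, 1 h RT, 700 rpm; reagent mix, 1 h RT, 700 rpm; HTRF read. Buffer Tris pH 7.5/NaCl/MgCl2/BSA/Tween, 10% DMSO. Output % activity, DMSO = 100%.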
In general terms: In TR-FRET formats the signal depends on donor and acceptor labels being close together.

The target of experiment [2] is T2, Avi-KRAS G12R (1-169) GppNHp/RAF1 RBD-3xFLAG (52-151) (Homo sapiens, UniProt P01116, G12R).
T2 construct: Avi-KRAS G12R (1-169)
T2 sequence (P01116 1-169 isoform P01116-2 G12R): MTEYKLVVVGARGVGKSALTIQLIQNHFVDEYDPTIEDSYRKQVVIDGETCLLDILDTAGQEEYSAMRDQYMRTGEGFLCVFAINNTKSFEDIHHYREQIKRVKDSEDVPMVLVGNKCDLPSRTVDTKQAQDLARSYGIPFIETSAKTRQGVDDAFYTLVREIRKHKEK
Nature of the experiment: Raf1-KRAS G12R-GppNHP disruption HTRF assay (Biological Example 1). Conditions: KRAS G12R, GppNHp-loaded; Table 11. Format: binding. In outline:
as §1

Experiment [3] addresses T3, Avi-KRAS G12V (1-169) GppNHp/RAF1 RBD-3xFLAG (52-151) (Homo sapiens, UniProt P01116, G12V).
T3 construct: Avi-KRAS G12V (1-169)
Nature of the experiment: Raf1-KRAS G12V-GppNHP disruption HTRF assay (Biological Example 1). Format: binding. Conditions: KRAS G12V, GppNHp-loaded; Table 11. In outline:
as §1

Experiment [4] deals with T4, Avi-KRAS WT (1-169) GppNHp/RAF1 RBD-3xFLAG (52-151) (Homo sapiens, UniProt P01116).
T4 construct: Avi-KRAS WT (1-169)
T4 sequence (P01116 1-169 isoform P01116-2): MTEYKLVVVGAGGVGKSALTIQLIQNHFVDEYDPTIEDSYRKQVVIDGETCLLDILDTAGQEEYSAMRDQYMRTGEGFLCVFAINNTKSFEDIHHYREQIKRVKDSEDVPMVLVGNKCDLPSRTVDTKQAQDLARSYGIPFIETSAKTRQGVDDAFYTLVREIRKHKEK
Description: Raf1-KRAS WT-GppNHP disruption HTRF assay (Biological Example 1). In kind it is binding. The note with it: KRAS WT, GppNHp-loaded; Table 11. In outline: as §1

The test system of experiment [5] is GP2d cells (KRAS G12D). Description: Cell-based pERK HTRF assay in GP2d cell (Biological Example 2). The note with it: GP2d (KRAS G12D) cells, pERK HTRF. In outline:
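Phospho-ERK in lysed cells was detected by HTRF using Eu cryptate and d2 antibodies, read between 4 and 24 h at room temperature. Prior to lysis, KRAS G12D GP2d cells, seeded the day before in DMEM with 10% FBS, were exposed to compounds for 60 min. Compounds were tested as 9-point half-log curves from 1 μM or 100 nM top, with 0.25% DMSO.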

Molecules are shown by their SMILES. Where only a bound is given, the exact number is not on record here.

T1 sequence (P01116 1-169 isoform P01116-2 G12D): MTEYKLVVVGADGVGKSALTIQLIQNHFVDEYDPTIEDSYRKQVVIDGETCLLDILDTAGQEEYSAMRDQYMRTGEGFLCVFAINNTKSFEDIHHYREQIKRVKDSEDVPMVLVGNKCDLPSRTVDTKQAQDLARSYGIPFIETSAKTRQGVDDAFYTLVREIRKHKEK
T3 sequence (P01116 1-169 isoform P01116-2 G12V): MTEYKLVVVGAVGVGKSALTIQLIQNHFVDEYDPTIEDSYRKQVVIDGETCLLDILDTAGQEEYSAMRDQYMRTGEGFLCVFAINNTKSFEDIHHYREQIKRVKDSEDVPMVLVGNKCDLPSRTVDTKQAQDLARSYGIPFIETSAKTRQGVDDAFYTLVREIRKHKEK

Broadly, the IC50 is the concentration at which inhibition is half-maximal. Regarding `C[C@@H](O)C1CCN(c2nc(OC[C@@]34CCCN3C[C@H](F)C4)nc3c(F)c(-c4ccc(F)c5sc(N)c(C#N)c45)c(C(F)(F)F)cc23)CC1` [Compound 49], the concentration for half-maximal inhibition (IC50) was less than 0.1 µM in experiment [1]; 0.1 to 1 µM in experiment [2]; 0.1 to 1 µM in experiment [3]; 0.1 to 1 µM in experiment [4]; less than 0.1 µM in experiment [5] (GP2d).

With `C[C@H](O)C1CCN(c2nc(OC[C@@]34CCCN3C[C@H](F)C4)nc3c(F)c(-c4ccc(F)c5sc(N)c(C#N)c45)c(C(F)(F)F)cc23)CC1` [Compound 50], the IC50 in experiment [1] was in the range of 0.1 to 1 µM; in experiment [2], 1 to 10 µM; in experiment [3] it was 1 to 10 µM; in experiment [4], 0.1 to 1 µM; in experiment [5] (GP2d) it was 0.1 to 1 µM.

For `CN(c1nc(OC[C@@]23CCCN2C[C@H](F)C3)nc2c(F)c(-c3ccc(F)c4sc(N)c(C#N)c34)c(C(F)(F)F)cc12)C1CCC(O)CC1` (some centres unmarked) [Compound 65], the IC50 is 0.1 to 1 µM in experiment [1]; 0.1 to 1 µM in experiment [2]; 0.1 to 1 µM in experiment [3]; 0.1 to 1 µM in experiment [4]; less than 0.1 µM in experiment [5] (GP2d).

For the compound `CN(c1nc(OC[C@@]23CCCN2C[C@H](F)C3)nc2c(F)c(-c3ccc(F)c4sc(N)c(C#N)c34)c(C(F)(F)F)cc12)C1CCC(O)CC1` (some centres unmarked) [Compound 66], the IC50 in experiment [1], in experiment [2], in experiment [3], in experiment [4] and in experiment [5] was 0.1 to 1 µM throughout.

In the case of `CN(CCO)c1nc(OC[C@@]23CCCN2C[C@H](F)C3)nc2c(F)c(-c3ccc(F)c4sc(N)c(C#N)c34)c(C(F)(F)F)cc12` [Compound 70, 2-amino-7-fluoro-4-(8-fluoro-2-(((2R,7aS)-2-fluorotetrahydro-1H-pyrrolizin-7a(5H)-yl)methoxy)-4-((2-hydroxyethyl)(methyl)amino)-6-(trifluoromethyl)quinazolin-7-yl)benzo[b]thiophene-3-carbonitrile], the IC50 in experiment [1] was less than 0.1 µM; in experiment [2] it was 0.1 to 1 µM; in experiment [3] it was 0.1 to 1 µM; in experiment [4], 0.1 to 1 µM; in experiment [5] (GP2d), less than 0.1 µM.

Regarding `C[C@@H](O)CN(C)c1nc(OC[C@@]23CCCN2C[C@H](F)C3)nc2c(F)c(-c3ccc(F)c4sc(N)c(C#N)c34)c(C(F)(F)F)cc12` [Compound 71], the half-maximal inhibitory concentration (IC50) is less than 0.1 µM in experiment [1]; 0.1 to 1 µM in experiment [2]; 0.1 to 1 µM in experiment [3]; 0.1 to 1 µM in experiment [4]; less than 0.1 µM in experiment [5] (GP2d).

For the compound `C[C@H](O)CN(C)c1nc(OC[C@@]23CCCN2C[C@H](F)C3)nc2c(F)c(-c3ccc(F)c4sc(N)c(C#N)c34)c(C(F)(F)F)cc12` [Compound 72], the IC50 was less than 0.1 µM in experiment [1]; 0.1 to 1 µM in experiment [2]; 0.1 to 1 µM in experiment [3]; 0.1 to 1 µM in experiment [4]; less than 0.1 µM in experiment [5] (GP2d).

For the compound `CN(CCCO)c1nc(OC[C@@]23CCCN2C[C@H](F)C3)nc2c(F)c(-c3ccc(F)c4sc(N)c(C#N)c34)c(C(F)(F)F)cc12` [Compound 73], the IC50 in experiment [1] was 0.1 to 1 µM; in experiment [2], 0.1 to 1 µM; in experiment [3], 0.1 to 1 µM; in experiment [4], 0.1 to 1 µM; in experiment [5] (GP2d), less than 0.1 µM.

Consider `CCN(CCO)c1nc(OC[C@@]23CCCN2C[C@H](F)C3)nc2c(F)c(-c3ccc(F)c4sc(N)c(C#N)c34)c(C(F)(F)F)cc12` [Compound 74], for which the IC50 in experiment [1], in experiment [2], in experiment [3], in experiment [4] and in experiment [5] (GP2d) was less than 0.1 µM in each case.

As to `C[C@H](CO)N(C)c1nc(OC[C@@]23CCCN2C[C@H](F)C3)nc2c(F)c(-c3ccc(F)c4sc(N)c(C#N)c34)c(C(F)(F)F)cc12` [Compound 76], the IC50 was less than 0.1 µM in experiment [1]; 0.1 to 1 µM in experiment [2]; 0.1 to 1 µM in experiment [3]; 0.1 to 1 µM in experiment [4]; less than 0.1 µM in experiment [5] (GP2d).

As to `C[C@@H](CO)N(C)c1nc(OC[C@@]23CCCN2C[C@H](F)C3)nc2c(F)c(-c3ccc(F)c4sc(N)c(C#N)c34)c(C(F)(F)F)cc12` [Compound 77], the IC50 was less than 0.1 µM in experiment [1]; 0.1 to 1 µM in experiment [2]; 0.1 to 1 µM in experiment [3]; 0.1 to 1 µM in experiment [4]; less than 0.1 µM in experiment [5] (GP2d).

For `CN(C[C@@H](O)CO)c1nc(OC[C@@]23CCCN2C[C@H](F)C3)nc2c(F)c(-c3ccc(F)c4sc(N)c(C#N)c34)c(C(F)(F)F)cc12` [Compound 78], the IC50 in experiment [1] is less than 0.1 µM; in experiment [2], 0.1 to 1 µM; in experiment [3] it was 0.1 to 1 µM; in experiment [4] it was 0.1 to 1 µM; in experiment [5] (GP2d), less than 0.1 µM.

For the compound `CN(C[C@H](O)CO)c1nc(OC[C@@]23CCCN2C[C@H](F)C3)nc2c(F)c(-c3ccc(F)c4sc(N)c(C#N)c34)c(C(F)(F)F)cc12` [Compound 79], the IC50 in experiment [1] is less than 0.1 µM; in experiment [2], 0.1 to 1 µM; in experiment [3], 0.1 to 1 µM; in experiment [4], 0.1 to 1 µM; in experiment [5] (GP2d) it was less than 0.1 µM.

Regarding `CN(c1nc(OC[C@@]23CCCN2C[C@H](F)C3)nc2c(F)c(-c3ccc(F)c4sc(N)c(C#N)c34)c(C(F)(F)F)cc12)C(CO)CO` [Compound 80], the IC50 in experiment [1] was less than 0.1 µM; in experiment [2], 0.1 to 1 µM; in experiment [3], 0.1 to 1 µM; in experiment [4] it was 0.1 to 1 µM; in experiment [5] (GP2d) it was less than 0.1 µM.

As to `CCN(C)c1nc(OC[C@@]23CCCN2C[C@H](F)C3)nc2c(F)c(-c3ccc(F)c4sc(N)c(C#N)c34)c(C(F)(F)F)cc12` [Compound 81, 2-amino-4-[4-[ethyl(methyl)amino]-8-fluoro-2-[[(2R,8S)-2-fluoro-1,2,3,5,6,7-hexahydropyrrolizin-8-yl]methoxy]-6-(trifluoromethyl)quinazolin-7-yl]-7-fluoro-benzothiophene-3-carbonitrile], the IC50 is less than 0.1 µM in experiment [1]; less than 0.1 µM in experiment [2]; 0.1 to 1 µM in experiment [3]; 0.1 to 1 µM in experiment [4]; less than 0.1 µM in experiment [5] (GP2d).

As for `CN(CCO)c1nc(OC[C@@]23CCCN2C[C@H](F)C3)nc2c(F)c(-c3ccc(F)c4sc(N)nc34)c(C(F)(F)F)cc12` [Compound 82], the IC50 in experiment [1] is 0.1 to 1 µM; in experiment [2], 1 to 10 µM; in experiment [3], 1 to 10 µM; in experiment [4], 1 to 10 µM; in experiment [5] (GP2d), 0.1 to 1 µM.

Regarding `CN(CC1(CO)CC1)c1nc(OC[C@@]23CCCN2C[C@H](F)C3)nc2c(F)c(-c3ccc(F)c4sc(N)c(C#N)c34)c(C(F)(F)F)cc12` [Compound 83], the IC50 was 0.1 to 1 µM in experiment [1]; 0.1 to 1 µM in experiment [2]; 0.1 to 1 µM in experiment [3]; 0.1 to 1 µM in experiment [4]; less than 0.1 µM in experiment [5] (GP2d).

As to `CN(c1nc(OC[C@@]23CCCN2C[C@H](F)C3)nc2c(F)c(-c3ccc(F)c4sc(N)c(C#N)c34)c(C(F)(F)F)cc12)[C@H]1CCC[C@@H]1CO` [Compound 86], the IC50 was 0.1 to 1 µM in experiment [1]; 0.1 to 1 µM in experiment [2]; 1 to 10 µM in experiment [3]; 1 to 10 µM in experiment [4]; less than 0.1 µM in experiment [5] (GP2d).

Take `CN(c1nc(OC[C@@]23CCCN2C[C@H](F)C3)nc2c(F)c(-c3ccc(F)c4sc(N)c(C#N)c34)c(C(F)(F)F)cc12)[C@@H]1CCC[C@H]1CO` [Compound 87]: the IC50 in experiment [1] was more than 10 µM; in experiment [2], more than 10 µM; in experiment [3], more than 10 µM; in experiment [4] it was more than 10 µM; in experiment [5] (GP2d) it was more than 1 µM.

As for `CC(=O)NC1CN(c2nc(OC[C@@]34CCCN3C[C@H](F)C4)nc3c(F)c(-c4ccc(F)c5sc(N)c(C#N)c45)c(C(F)(F)F)cc23)C1` [Compound 88], the IC50 in experiment [1], in experiment [2], in experiment [3], in experiment [4] and in experiment [5] (GP2d) was 0.1 to 1 µM throughout.

In the case of `N#Cc1c(N)sc2c(F)ccc(-c3c(C(F)(F)F)cc4c(N5CCOCC5)nc(OC[C@@]56CCCN5C[C@H](F)C6)nc4c3F)c12` [Compound 90], the IC50 in experiment [1] was 0.1 to 1 µM; in experiment [2], 0.1 to 1 µM; in experiment [3] it was 0.1 to 1 µM; in experiment [4] it was 0.1 to 1 µM; in experiment [5] (GP2d) it was less than 0.1 µM.

Turning to `CN(c1nc(OC[C@@]23CCCN2C[C@H](F)C3)nc2c(F)c(-c3ccc(F)c4sc(N)c(C#N)c34)c(C(F)(F)F)cc12)[C@@H]1CCS(=O)(=O)C1` [Compound 93], the IC50 is 0.1 to 1 µM in experiment [1]; 0.1 to 1 µM in experiment [2]; 0.1 to 1 µM in experiment [3]; 0.1 to 1 µM in experiment [4]; less than 0.1 µM in experiment [5] (GP2d).
